According to patent US6737383B1, “Herbicidal oxadiazolidines” (priority 1999, dated 2004):

Legend:
sugar beet = assay: Test B pre/postemergence sugar beet; type: in vivo, Beta vulgaris
How it was run: (§1)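 Test chemicals in a non-phytotoxic solvent mixture with surfactant were sprayed preemergence onto planted seeds and postemergence onto plants 2 to 18 cm tall (1- to 4-leaf stage). After twelve to sixteen days in a greenhouse, injury was visually rated against untreated controls from 0 (no effect) to 10 (complete control).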

crabgrass = assay: Test B pre/postemergence crabgrass; type: in vivo, Digitaria sanguinalis
How it was run: as §1

soybean = assay: Test B pre/postemergence soybean; type: in vivo, Glycine max
How it was run: as §1

giant foxtail = assay: Test B pre/postemergence giant foxtail; type: in vivo, Setaria faberii
How it was run: as §1

[1] = Postemergence, Rate 125 g/ha, scale 0 to 10, 0 is no effect, 10 is complete control
[2] = Postemergence, Rate 250 g/ha, scale 0 to 10, 0 is no effect, 10 is complete control
[3] = Postemergence, Rate 1000 g/ha, scale 0 to 10 (0 no effect, 10 complete control)
[4] = Preemergence, Rate 250 g/ha, scale of 0 to 10 where 0 is no effect and 10 is complete control
[5] = Preemergence, Rate 500 g/ha, scale of 0 to 10 where 0 is no effect and 10 is complete control
[6] = Rate 500 g/ha, Postemergence, scale 0 to 10, 0 no effect, 10 complete control
[7] = Rate 1000 g/ha, Preemergence, scale 0 to 10 (0 no effect, 10 complete control)
[8] = Preemergence, Rate 62 g/ha, scale 0 to 10 (0 no effect, 10 complete control)
[9] = Rate 62 g/ha, Postemergence, scale of 0 to 10 where 0 is no effect and 10 is complete control

SMILES | Plant response rating, Sugarbeets (sugar beet; [1]) | Plant response rating, Sugarbeets (sugar beet; [2]) | Sugarbeets plant response rating (0 to 10 scale) (sugar beet; Preemergence, Rate 125 g/ha) | Sugarbeets plant response rating (sugar beet; [4]) | Sugarbeets plant response rating (sugar beet; [5]) | Plant response rating, Sugarbeets (sugar beet; [6]) | Plant response rating, Crabgrass (crabgrass; [1]) | Plant response rating, Crabgrass (crabgrass; [2]) | Crabgrass plant response rating (0 to 10 scale) (crabgrass; Preemergence, Rate 125 g/ha) | Crabgrass plant response rating (crabgrass; [4]) | Crabgrass plant response rating (crabgrass; [5]) | Plant response rating, Crabgrass (crabgrass; [6]) | Plant response rating, Soybean (soybean; [1]) | Plant response rating, Soybean (soybean; [2]) | Soybean plant response rating (0 to 10 scale) (soybean; Preemergence, Rate 125 g/ha) | Soybean plant response rating (soybean; [4]) | Soybean plant response rating (soybean; [5]) | Plant response rating, Soybean (soybean; [6]) | Plant response rating, Giant foxtail (giant foxtail; [1]) | Plant response rating, Giant foxtail (giant foxtail; [2]) | also measured
CCOC(=O)C(C)N(C(=O)n1oc(=O)n(C)c1=O)c1ccc(F)cc1 (stereo not shown) [Compound 365] | 0 | 0 | 0 | 0 | 0 | 0 | 0 | 0 | 0 | 0 | 4 | 0 | 0 | 2 | 0 | 0 | 0 | 2 | 0 | 0 | Sugarbeets plant response rating (sugar beet; [3]): 0; Plant response rating, Sugarbeets (sugar beet; [7]): 0; Crabgrass plant response rating (crabgrass; [3]): 0; Plant response rating, Crabgrass (crabgrass; [7]): 8; Soybean plant response rating (soybean; [3]): 3; Plant response rating, Soybean (soybean; [7]): 0; Giant foxtail plant response rating (giant foxtail; [3]): 0; Giant foxtail plant response rating (0 to 10 scale) (giant foxtail; Preemergence, Rate 125 g/ha): 0; Giant foxtail plant response rating (giant foxtail; [4]): 0; Giant foxtail plant response rating (giant foxtail; [5]): 3; Plant response rating, Giant foxtail (giant foxtail; [6]): 0; Plant response rating, Giant foxtail (giant foxtail; [7]): 9
CC(C)N(C(=O)n1oc(=O)n(C)c1=O)c1ccc(F)cc1F [Compound 368] | 0 | 2 | 8 | 10 | 10 | 3 | 8 | 8 | 10 | 10 | 10 | 8 | 5 | 5 | 2 | 7 | 8 | 5 | 8 | 9 | Plant response rating, Sugarbeets (sugar beet; [8]): 6; Sugarbeets plant response rating (sugar beet; [9]): 0; Plant response rating, Crabgrass (crabgrass; [8]): 10; Crabgrass plant response rating (crabgrass; [9]): 6; Plant response rating, Soybean (soybean; [8]): 0; Soybean plant response rating (soybean; [9]): 4; Plant response rating, Giant foxtail (giant foxtail; [8]): 10; Giant foxtail plant response rating (0 to 10 scale) (giant foxtail; Preemergence, Rate 125 g/ha): 10; Giant foxtail plant response rating (giant foxtail; [4]): 10; Giant foxtail plant response rating (giant foxtail; [5]): 10; Giant foxtail plant response rating (giant foxtail; [9]): 8; Plant response rating, Giant foxtail (giant foxtail; [6]): 9
